Assay results from patent US10098878B2, “HIF-2α inhibitors for treating iron overload disorders” (The Board of Regents of the University of Texas System, priority 2014, dated 2018).
Where two headings read alike, the source gives them in different places.

What was measured:
786-0 cells = assay: VEGF ELISA Assay; format: cell-based
Description: Each concentration had duplicated wells. About 20 hours later, medium was removed by suction and each well was supplied with 180 μL of growth medium. About 20 μl freshly-made 10× compound stocks were added to each well. […] The EC50 was calculated by GraphPad Prism using the dose-response-inhibition (four parameter) equation. The cell seeded plate was then subjected to CellTiter-Glo luminescence cell viability assay (Promega) by adding 50 μL of Celltiter Glo reagent into each well and shaking the plate for 8 minutes at 550 rpm (Thermomixer R, Eppendorf) then read luminescence signal in plate reader (3 second delay, 0.5 second/well integration time, Synergy 2 multi Detection Microplate reader) immediately.

[1] = target: T1, HIF-2α HIS TAG-PASB Domain (Homo sapiens, UniProt Q99814); assay: HIF-2α Scintillation Proximity Assay (SPA); format: binding; conditions: 100 nM HIF-2α HIS TAG-PASB Domain
T1 construct: 100 nM HIF-2α HIS TAG-PASB Domain
Outline: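 IC50 values rest on percent inhibition, where the sample signal is scaled between high and low controls. Wells contain about 100 μL: compound dispensed as 2 μL of DMSO solution, 88 μL protein-probe mix and 10 μL of beads.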

786-O-Hif-Luc cells = assay: Luciferase Assay; format: cell-based; conditions: read-out: Luciferase EC50
Description: A pool of infected cells were then selected against 2 μg/mL of puromycin (P8833, Sigma) for 10 days followed by limited dilution to select single clones.
Each concentration was tested in triplicate. After about 24 hours, luciferase activity was determined using ONE-Glo Luciferase Assay Reagent (E6110, Promega) following the manufacturer's recommended procedure. EC50 were calculated by using Dotmatics software.

[2] = Homo sapiens, 786-0, 786-0 cells, VEGFA concentration in cell culture medium, read-out: VEGF ELISA EC50
[3] = SPA IC50, 150 nM Compound 211 probe
[4] = 24 h, 786-O-Hif-Luc cells, about 24 hours
[5] = Homo sapiens, 786-0 cells, VEGFA concentration in cell culture medium, read-out: VEGF ELISA EC50
[6] = 786-O-Hif-Luc cells, about 24 hours
[7] = 150 nM Compound 211 probe, read-out: SPA IC50
[8] = 786-0 cells, VEGFA concentration in cell culture medium, read-out: VEGF ELISA EC50
[9] = Homo sapiens, 786-0, read-out: VEGF ELISA EC50

T1 sequence (Q99814 240-350 limits assumed): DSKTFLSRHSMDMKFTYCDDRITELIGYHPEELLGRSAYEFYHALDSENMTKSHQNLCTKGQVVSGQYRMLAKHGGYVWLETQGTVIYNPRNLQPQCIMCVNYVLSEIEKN

Row | Structure (SMILES) | EC50 (786-0 cells; [2]) [nM] | EC50 (786-O-Hif-Luc cells; [4]) [nM] | IC50 [1, 7] [nM] | also measured
1 | N#Cc1cc(F)cc(Oc2ccc(S(=O)(=O)C(F)(F)F)c3c2CC(F)(F)[C@H]3O)c1 [Compound 8, (S)-3-((2,2-Difluoro-1-hydroxy-7-((trifluoromethyl)sulfonyl)-2,3-dihydro-1H-inden-4-yl)oxy)-5-fluorobenzonitrile] | 4 | 3 |  | IC50 [1, 3]: < 5 nM
2 | O=S1(=O)c2ccc(Oc3cc(F)cc(Cl)c3)c(Br)c2[C@@H](O)C1(F)F [Compound 167, (3R)-4-Bromo-5-(3-chloro-5-fluoro-phenoxy)-2,2-difluoro-1,1-dioxo-3H-benzothiophen-3-ol] |  |  |  | EC50 (786-0 cells; [5]): 45 nM; IC50 [1, 3]: < 5 nM; EC50 (786-O-Hif-Luc cells; [6]): 37 nM
3 | N#Cc1cncc(Oc2ccc(C(F)(F)F)c3c2CC(F)(F)[C@H]3O)c1 [Compound 67, 5-[(1S)-2,2-difluoro-1-hydroxy-7-(trifluoromethyl)indan-4-yl]oxypyridine-3-carbonitrile] | 64 | 35 | 37 | 
4 | N#Cc1cc(F)cc(Oc2ccc3c(c2C(F)F)[C@@H](N)C(F)(F)S3(=O)=O)c1 [Compound 151, (R)-3-((3-Amino-4-(difluoromethyl)-2,2-difluoro-1,1-dioxido-2,3-dihydrobenzo[b]thiophen-5-yl)oxy)-5-fluorobenzonitrile] |  |  | 69 | EC50 (786-0 cells; [5]): 680 nM; EC50 (786-O-Hif-Luc cells; [6]): 139 nM
5 | N#Cc1cncc(Oc2ccc(S(=O)(=O)CF)c3c2[C@@H](F)C(F)(F)[C@H]3O)c1 [Compound 108, 5-(((1S,3R)-2,2,3-trifluoro-7-((fluoromethyl)sulfonyl)-1-hydroxy-2,3-dihydro-1H-inden-4-yl)oxy)nicotinonitrile] | 123 | 42 | 6.7 | 
6 | O=S(=O)(c1ccc(Oc2cncc(F)c2)c2c1[C@H](O)C(F)(F)C2)C(F)(F)F [Compound 73, (S)-2,2-difluoro-4-((5-fluoropyridin-3-yl)oxy)-7-((trifluoromethyl)sulfonyl)-2,3-dihydro-1H-inden-1-ol] | 26 | 9 | < 5 | 
7 | N#Cc1cc(F)cc(Oc2ccc(S(=N)(=O)C(F)(F)F)c3c2CC(F)(F)[C@H]3O)c1 (single isomer, unassigned) [Compound 70] |  |  | < 5 | EC50 (786-0 cells; [8]): 19 nM
8 | CS(=O)(=NC#N)c1ccc(Oc2cc(F)cc(C#N)c2)c2c1[C@H](O)C(F)(F)C2 (single isomer, unassigned) [Compound 20] | 67 | 28 | 27 | 
9 | NS(=O)(=O)c1ccc(Oc2cncc(F)c2)c2c1[C@H](O)C(F)(F)[C@@H]2F [Compound 105, (1R,3S)-1,2,2-trifluoro-7-[(5-fluoro-3-pyridyl)oxy]-3-hydroxy-indane-4-sulfonamide] | 160 | 114 | 18 | 
10 | Cc1cc(C#N)cc(Oc2ccc(S(=O)(=O)CF)c3c2CC(F)(F)[C@H]3O)c1 [Compound 7, (S)-3-((2,2-Difluoro-7-((fluoromethyl)sulfonyl)-1-hydroxy-2,3-dihydro-1H-inden-4-yl)oxy)-5-methylbenzonitrile] | 70 | 34 | < 5 | 
11 | N#Cc1cc(F)cc(Oc2ccc(S(N)(=O)=O)c3c2[C@@H](F)C(F)(F)[C@H]3O)c1 [Compound 102, (1R,3S)-7-(3-cyano-5-fluoro-phenoxy)-1,2,2-trifluoro-3-hydroxy-indane-4-sulfonamide] |  |  |  | EC50 (786-0 cells; [9]): 11 nM; EC50 (786-O-Hif-Luc cells; 24 h): 6 nM
12 | O=S1(=O)c2ccc(Oc3cc(F)cc(Cl)c3)c(Br)c2C(O)C1(F)F (stereo not shown) [Compound 119, 4-Bromo-5-(3-chloro-5-fluorophenoxy)-2,2-difluoro-3-hydroxy-2,3-dihydrobenzo[b]thiophene 1,1-dioxide] |  |  |  | EC50 (786-0 cells; [5]): 64 nM; EC50 (786-O-Hif-Luc cells; [6]): 46 nM
13 | O=S1(=O)c2ccc(Oc3cc(F)cc(Cl)c3)c(C(F)F)c2C(O)C1(F)F (stereo not shown) [Compound 128, 5-(3-Chloro-5-fluorophenoxy)-4-(difluoromethyl)-2,2-difluoro-3-hydroxy-2,3-dihydrobenzo[b]thiophene 1,1-dioxide] |  |  |  | EC50 (786-0 cells; [5]): 29 nM; IC50 [1, 3]: < 5 nM; EC50 (786-O-Hif-Luc cells; [6]): 17 nM
14 | CS(=O)(=O)c1ccc(Oc2cncc(Cl)c2)c2c1[C@H](O)C(F)(F)[C@@H]2F [Compound 95, (1S,3R)-4-((5-chloropyridin-3-yl)oxy)-2,2,3-trifluoro-7-(methylsulfonyl)-2,3-dihydro-1H-inden-1-ol] | 41 | 41 | 7.2 | 
15 | CC1(O)c2c(ccc(Oc3cc(F)cc(F)c3)c2C#N)S(=O)(=O)C1(F)F (stereo not shown) [Compound 210, 5-(3,5-Difluorophenoxy)-2,2-difluoro-3-hydroxy-3-methyl-2,3-dihydrobenzo[b]thiophene-4-carbonitrile 1,1-dioxide] | 18 | 22 | 41 | 
16 | N=S1(=O)c2ccc(Oc3cc(F)cc(F)c3)c(C(F)F)c2C(O)C1(F)F (single isomer, unassigned) [Compound 162, 4-(Difluoromethyl)-5-(3,5-difluorophenoxy)-2,2-difluoro-3-hydroxy-1-imino-2,3-dihydro-1H-1λ^4-benzo[b]thiophene 1-oxide] | 90 | 69 | 29 | 
17 | O=S1(=O)c2ccc(Oc3cc(F)cc(Cl)c3)c(C(F)(F)F)c2C(O)C1(F)F (stereo not shown) [Compound 124, 5-(3-Chloro-5-fluorophenoxy)-2,2-difluoro-3-hydroxy-4-(trifluoromethyl)-2,3-dihydrobenzo[b]thiophene 1,1-dioxide] |  |  |  | EC50 (786-0 cells; [5]): 89 nM; IC50 [1, 3]: < 5 nM; EC50 (786-O-Hif-Luc cells; [6]): 75 nM
18 | N#Cc1cc(F)cc(Oc2ccc3c(c2C(F)F)C(N)C(F)(F)S3(=O)=O)c1 (stereo not shown) [Compound 136, 3-((3-Amino-4-(difluoromethyl)-2,2-difluoro-1,1-dioxido-2,3-dihydrobenzo[b]thiophen-5-yl)oxy)-5-fluorobenzonitrile] |  |  | < 5 | EC50 (786-0 cells; [5]): 200 nM; EC50 (786-O-Hif-Luc cells; [6]): 110 nM
19 | N#Cc1cncc(Oc2ccc(S(=O)(=O)C(F)(F)F)c3c2C[C@@H](F)[C@H]3O)c1 [Compound 14, 5-(((1S,2R)-2-Fluoro-1-hydroxy-7-((trifluoromethyl)sulfonyl)-2,3-dihydro-1H-inden-4-yl)oxy)nicotinonitrile] | 69 | 25 | < 5 | 
20 | N#Cc1cc(F)cc(Oc2ccc(S(=N)(=O)CF)c3c2CC(F)(F)[C@H]3O)c1 (single isomer, unassigned) [Compound 38] | 1440 | 195 | 94 | 
21 | N#Cc1cc(F)cc(Oc2ccc3c(c2Br)[C@@H](O)C(F)(F)S3(=O)=O)c1 [Compound 111, (R)-3-((4-bromo-2,2-difluoro-3-hydroxy-1,1-dioxido-2,3-dihydrobenzo[b]thiophen-5-yl)oxy)-5-fluorobenzonitrile] |  |  | 7.2 | EC50 (786-0 cells; [5]): 64 nM; EC50 (786-O-Hif-Luc cells; [6]): 23 nM
22 | CS(=O)(=O)c1ccc(Oc2cncc(C#N)c2)c2c1[C@H](O)C(F)(F)C2 [Compound 89, (S)-5-((2,2-Difluoro-1-hydroxy-7-(methylsulfonyl)-2,3-dihydro-1H-inden-4-yl)oxy)nicotinonitrile] | 146 | 488 | 180 | 
23 | NC1c2c(ccc(Oc3cc(F)cc(F)c3)c2C(F)F)S(=O)(=O)C1(F)F (stereo not shown) [Compound 129, 3-Amino-4-(difluoromethyl)-5-(3,5-difluorophenoxy)-2,2-difluoro-2,3-dihydrobenzo[b]thiophene 1,1-dioxide] | 87 | 68 | < 5 | 
24 | O=S(=O)(c1ccc(Oc2ccc(F)c3[nH]ncc23)c2c1[C@H](O)C(F)(F)C2)C(F)(F)F [Compound 30, (S)-2,2-difluoro-4-((7-fluoro-1H-indazol-4-yl)oxy)-7-((trifluoromethyl)sulfonyl)-2,3-dihydro-1H-inden-1-ol] | 54 | 30 |  | 
25 | CS(=O)(=NC#N)c1ccc(Oc2cc(F)cc(C#N)c2)c2c1[C@H](O)C(F)(F)[C@@H]2F (single isomer, unassigned) [Compound 81] |  |  | < 5 | EC50 (786-0 cells; [8]): 14 nM
26 | N#Cc1ccc(Oc2cc(F)cc(F)c2)c2c1[C@H](O)C(F)(F)C2 [Compound 4, (S)-7-(3,5-Difluorophenoxy)-2,2-difluoro-3-hydroxy-2,3-dihydro-1H-indene-4-carbonitrile] |  |  |  | EC50 (786-0 cells; [9]): 217 nM
27 | N#Cc1cc(F)cc(Oc2ccc(S(=N)(=O)C(F)(F)F)c3c2CC(F)(F)[C@H]3O)c1 (single isomer, unassigned) [Compound 69] | 20 |  | < 5 | 
